These results are taken from publication PMC2916745 (Journal of medicinal chemistry, 2010).

The subject of series [1] is tamoxifen-resistant breast tumors. Conditions: cited from earlier work.
In the next series the target is T1, human ERα (Homo sapiens, UniProt P03372).
T1 sequence (P03372 1-595): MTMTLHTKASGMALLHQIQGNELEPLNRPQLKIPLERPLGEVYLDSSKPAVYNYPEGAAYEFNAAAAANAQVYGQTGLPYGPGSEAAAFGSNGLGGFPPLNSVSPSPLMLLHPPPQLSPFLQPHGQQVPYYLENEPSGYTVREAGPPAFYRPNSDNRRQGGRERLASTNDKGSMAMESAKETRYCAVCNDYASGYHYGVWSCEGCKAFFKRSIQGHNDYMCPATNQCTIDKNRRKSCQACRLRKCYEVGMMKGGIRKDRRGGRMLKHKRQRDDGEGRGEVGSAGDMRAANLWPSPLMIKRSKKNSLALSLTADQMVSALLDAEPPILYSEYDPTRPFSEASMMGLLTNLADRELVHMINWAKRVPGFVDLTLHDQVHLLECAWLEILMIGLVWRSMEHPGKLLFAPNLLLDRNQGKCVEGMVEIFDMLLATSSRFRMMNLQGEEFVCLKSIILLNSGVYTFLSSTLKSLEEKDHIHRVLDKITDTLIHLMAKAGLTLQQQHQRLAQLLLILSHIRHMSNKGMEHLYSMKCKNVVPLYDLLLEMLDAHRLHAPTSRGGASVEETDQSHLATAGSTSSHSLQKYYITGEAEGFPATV
Briefly: competitive radiometric binding assay with [3H]estradiol, ERα. Conditions: relative binding affinity, IC50[estradiol]/IC50[compound] × 100, estradiol = 100; 10 nM [3H]estradiol, 18-24 h at 0 °C; average ± range or SD.

A further series addresses human ERβ (Homo sapiens, UniProt Q92731). Briefly: competitive radiometric binding assay with [3H]estradiol, ERβ.
The next series deals with ERα-target genes. The series is described as follows: real-time PCR analysis of ERα target genes in MCF-7 cells. Format: cell-based, human. Conditions: 1 μM compound, 1 nM E2, RNA level. For orientation: Real-time PCR tracks product formation cycle by cycle.
The conditions of series [2]: cited from earlier work.
Series [3] relates to tamoxifen-resistant breast cancer cells. The note with it: cited from earlier work.
Setting [4] is: Figure 6B, not fully reversed to control.

Sequence of human ERβ (Q92731 whole entry): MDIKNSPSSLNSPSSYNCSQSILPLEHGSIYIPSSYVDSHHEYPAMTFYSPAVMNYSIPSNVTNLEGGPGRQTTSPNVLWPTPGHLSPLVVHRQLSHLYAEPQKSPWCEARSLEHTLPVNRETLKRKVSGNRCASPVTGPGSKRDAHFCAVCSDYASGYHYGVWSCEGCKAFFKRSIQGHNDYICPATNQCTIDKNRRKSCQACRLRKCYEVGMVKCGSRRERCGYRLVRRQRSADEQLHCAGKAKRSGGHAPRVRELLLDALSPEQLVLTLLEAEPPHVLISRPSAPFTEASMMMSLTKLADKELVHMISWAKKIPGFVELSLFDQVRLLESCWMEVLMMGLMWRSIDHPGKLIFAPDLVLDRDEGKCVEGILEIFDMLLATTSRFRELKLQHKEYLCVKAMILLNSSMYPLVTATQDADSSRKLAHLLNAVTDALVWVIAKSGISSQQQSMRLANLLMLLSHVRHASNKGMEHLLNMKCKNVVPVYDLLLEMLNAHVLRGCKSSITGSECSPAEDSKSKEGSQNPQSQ

`CC/C(=C(\c1ccccc1)c1ccc(/C=C/C(=O)O)cc1)c1ccccc1` [Compound 1]: the “growth of tamoxifen-resistant breast tumors” value in series [1] was “can inhibit”.

Take `CC(=O)Oc1ccc(C(=C2CCCCC2)c2ccc(OC(C)=O)cc2)cc1` [Compound 2, cyclofenil]: the “RBA ERα” value on human ERα turned out to be 68 ± 18. Moreover, the β/α on human ERβ (ratio of RBA values, >1 for higher affinity on ERβ than on ERα) was found to be 4.9. In addition, the “RBA ERβ” value on human ERβ (relative binding affinity, IC50[estradiol]/IC50[compound] × 100, estradiol = 100, 10 nM [3H]estradiol, 18-24 h at 0 °C, average ± range or SD) is 334 ± 54.

On to `CC/C(=C(\c1ccc(O)cc1)c1ccc(/C=C/C(=O)O)cc1)c1ccccc1` [Compound 4], for which, in the series on ERα-target genes (Figure 6A), the “E2-mediated activation of the CA12 gene” value is recorded as “most effective”, the “E2-mediated stimulation of the PR gene” value is “significantly blocked” and the “E2-mediated stimulation of the pS2 gene” value is listed as “significantly blocked”. In addition, in the series on ERα-target genes (setting [4]), the “E2-mediated repression of BLNK gene expression” value is reported as “reduce” and the “E2-mediated repression of ENC1 gene expression” value was “reduce”.

For `C[C@]12CC[C@@H]3c4ccc(O)cc4C[C@@H](CCCCCCCCC[S+]([O-])CCCC(F)(F)C(F)(F)F)[C@H]3[C@@H]1CC[C@@H]2O` (some centres unmarked) [ICI 182,780], the oral bioavailability result in series [2] is recorded as “poor”. In addition, the “growth of tamoxifen-resistant breast cancer cells” value in series [3] is reported as “capable of inhibiting”.
